Data: paper PMC3877906, “Polypeptide Modulators of TRPV1 Produce Analgesia without Hyperthermia” (Marine Drugs, 2013)
“Also recorded” adds a separate entry of the source.

Tests used:
[1] = test system: CD-1 mice; assay: pain models in vivo, overall; parameters: species or system mouse; conditions: i.v.
Method: (§1) All experiments were performed in accordance with the recommendations in the “Principles of Laboratory Animal Care” and after approval by the Animal Care and Use Committee of the Branch of the IBCh RAS (Pushchino, Russia). Adult male CD-1 mice (Animal Breeding Facility Branch of Shemyakin-Ovchinnikov Institute of Bioorganic Chemistry, Russian Academy of Sciences, Pushchino, Russia) weighing 20–25 g were used. Animals were allowed to acclimate in the laboratory for at least five days. Mice were housed at room temperature (23 ± 2 °C) on a 12 h light–dark cycle with food and water available ad libitum. Polypeptides or vehicle was administered intravenously 15 min before testing.
(§2) The significance of the data was determined by analysis of variance (ANOVA) followed by Tukey’s test. Data are presented as mean ± S.E.

[2] = test system: TRPV1; type: cell-based, rat; conditions: for effect on capsaicin-induced TRPV1 response: whole-cell patch clamp, HEK-293
Method: Figure 2 Effects of APHC3 on recombinant TRPV1 expressed in HEK-293 cells. (a) Resting current recorded from a TRPV1-positive cell held at −30 mV. […] Straight lines above the recording indicate application of APHC3 (Long line) and capsaicin (Short lines). The cells were stimulated and rinsed by rapid switching of the bath solution between the control solution and solutions containing the indicated compound. (b) Capsaicin responses in control and in the presence of the 300 nM APHC3 peptide. In each case, the control response was calculated as an average of two acid responses recorded just prior to peptide application. Averaged responses recorded in the presence of APHC3 were normalized to averaged control responses. Those are presented as the mean ± s.d. (n = 4). […] (c, d) Cell responses to the acidification of the bath solution from pH 7.4 to pH 5.5 in control and in the presence of the APHC3 applied at different concentrations as indicated. The experimental traces in (c) and in (d, upper trace) illustrate representative responses of EGFP/TRPV1-positive cells. The bottom trace in (d) represents responses of an EGFP/TRPV1-negative cell assayed simultaneously. (e) Acid responses recorded in the presence of APHC3 (90, 160 and 240 nM) normalized to a control response. The data are presented as the mean ± s.d. (n = 5–10). […] In each case, the control response was calculated as an average of the two acid responses recorded just prior to peptide application. The average of the two acid responses recorded after peptide application was calculated and normalized to the control response. Experimental traces in (c, d) were obtained from three different cells. The changes in bath solution pH (continuous lines) and APHC3 applications (thick straight lines) are shown above the fluorescence traces. Cells were stimulated and rinsed by a rapid replacement of the control bath solution with modified bath solution at pH 5.5 with or without APHC3.
HEK-293 cells were cultured in Dulbecco’s modified Eagle’s medium (DMEM) (Life Technologies, Grand Island, NY, USA) containing 10% (vol/vol) fetal bovine serum (Thermo Fisher Scientific, Palm Beach, FL, USA), glutamine (1%) and the antibiotic gentamicin (100 μg/mL) (Life Technologies, Grand Island, NY, USA). The pIRES2-EGFP plasmid harboring rat TRPV1 cDNA was transiently transfected into HEK-293 cells by replacing the growth medium in each well with a transfection mixture, containing 1.6 μg of DNA and 4 μL of Lipofectamine (Life Technologies, Grand Island, NY, USA) in 1 mL of serum-free DMEM. After incubating for 6 h, the transfection mixture was replaced with normal culture medium. Cells were assayed within 48–96 h after transfection.
Ion currents were recorded using an Axopatch 200A amplifier, with a DigiData 1322A interface, and pClamp8 software (Molecular Devices, Downingtown, PA, USA). External solutions were delivered by a gravity-driven perfusion system at a rate of 0.1 mL/s. Generally, the whole-cell patch clamp approach was used with recording pipettes containing (mM): 140 CsCl, 1 MgATP, 10 BAPTA, 10 HEPES-CsOH (pH 7.2). The basic bath solution included the following (mM): 140 NaCl, 5 KCl, 1 MgCl2, 1 CaCl2, 10 HEPES-NaOH (pH 7.4).

[3] = test system: ASIC3; assay: ASIC3 activity, oocyte electrophysiology or agonist-induced fluorescence readout; type: cell-based; conditions: concentrations of up to 2 μM; data not shown
[4] = test system: CD-1 mice; assay: formalin test; type: in vivo, mouse; conditions: for formalin-induced response: 0.01 mg/kg; for inhibition of second phase of formalin test: 10.01–60 min; for effect on first phase of formalin test, in words / effect on second phase of formalin test, in words: vs saline
Excerpt: The formalin test is a complex in vivo model of pain where TRPV1’s function is more integrative than perceptive. In the mouse, intraplantar injections of formalin produce a biphasic behavioral reaction. The molecular mechanisms underlying formalin-induced pain are based on tissue damage, non-specific activation of nociceptors and direct activation of TRPA1 receptors (measured in phase I) that drive the local neurogenic inflammation and CNS sensitization (measured in phase 2). APHC1 and APHC3 were tested on TRPA1 for inhibitory/activation effects.
as §1, §2
Formalin (10 μL 2% in saline) was injected intradermally into the left hind paw. […] This test produces a distinct biphasic response. The total duration of paw flinching during the early phase (0–10 min) and late phase (10.01–60 min) were summed.

[5] = test system: CD-1 mice; assay: core body temperature (rectal measuring); type: in vivo, mouse; conditions: for change in core body temperature: n = 7; for core body temperature, in words: rectal measuring, mice, vs saline
Method: Admittedly, hyperthermia is considered a critical side effect of TRPV1 antagonists, so we assessed the effect of the polypeptides on body temperature. Polypeptides were administered intravenously at doses 0.1 mg/kg and 0.5 mg/kg, and rectal temperature was monitored (Figure 5a,b).
as §1, §2
The MLT1404 Rectal Temperature Probe and Chart Power Lab (ADInstruments Inc., Colorado Springs, CO, USA) was used to record body temperature. During recording, the animals were placed in a MLA5018 Rodent Restrainer (ADInstruments Inc., Colorado Springs, CO, USA). The adaptation period was 20 min. Core body temperature was recorded every minute for 20 min before and 100 min after test compound administration. AMG9810 was dissolved in DMSO and was injected intraperitoneally.

[6] = test system: CD-1 mice; conditions: 0.1 mg/kg, intravenous; ref [15],[16]; cited from earlier work
Method: The hot plate test is a most simple for TRPV1 inhibitor characterization since TRPV1 play significant role in temperature sensation. Effect of APHC1 and APHC3 on thermal nociception at dose 0.1 mg/kg after intramuscular, intraperitoneal and intravenous administration was measured before. […] Here we assessed changes in thermal nociception to a noxious thermal stimuli elicited by different doses of APHC1 and APHC3 to determine minimal effective dose. Intravenous administration ...

Substance	doses with antinociceptive and analgesic activity in vivo [1] [mg/kg]	inhibition of TRPV1 currents ([2]; 100 nM capsaicin, 300 nM APHC3, whole-cell, held at −30 mV, pH 7.4 bath, four experiments (n = 4)) [%]	inhibitory effect on capsaicin-induced currents ([2]; concentrations more than 300 nM) [%]	effect on capsaicin-induced TRPV1 response ([2]; 100 nM capsaicin)	agonistic/antagonistic activity at ASIC3 [3]	formalin-induced response [4]	inhibition of second phase of formalin test ([4]; 0.1 mg/kg i.v., n = 9) [%]	effect on first phase of formalin test, in words ([4]; 0.1 mg/kg i.v., n = 9)	effect on second phase of formalin test, in words ([4]; 0.1 mg/kg i.v., n = 9)	change in core body temperature ([5]; 0.1 mg/kg i.v., 60 min after administration) [°C]	change in core body temperature ([5]; 0.5 mg/kg i.v., not statistically significant) [°C]	core body temperature, in words [5]	paw withdrawal latency, hot plate, previous studies [6]	attenuation of first phase of formalin test ([4]; 0.1 mg/kg i.v., 0–10 min, n = 9, "39% of response") [%]	change in core body temperature ([5]; 0.1 mg/kg i.v., in the 30 min after administration, stayed at this level) [°C]	change in core body temperature ([5]; 0.5 mg/kg i.v., at the end of data acquisition time) [°C]
APHC3: polypeptide from Heteractis crispa highly homologous to APHC1, differing in four of 56 amino acids; produced recombinantly in E. coli (GSICLEPKVVGPCTAYFPRFYFNSETGKCTPFIYGGCEGNGNNFETLRACRGICRA; left off: TRX, end not stated, cleaved)	0.01 to 0.1	~25	25	partially blocked the capsaicin-induced response	neither agonistic nor antagonistic activity	no significant influence	86	did not affect the first phase of the response; also recorded: no significant effect on phase 1	almost completely blocked phase 2; also recorded: significantly inhibited the second phase	−0.6	−0.4	did not cause hyperthermia; also recorded: modest hypothermic effect; also recorded: moderate decrease in core body temperature	significantly prolonged paw withdrawal latency	–	–	–
APHC1: polypeptide modulator of TRPV1 from sea anemone Heteractis crispa; homologous to BPTI/Kunitz type serine-protease inhibitors; produced recombinantly in E. coli (GSICLEPKVVGPCTAYFRRFYFDSETGKCTVFIYGGCEGNGNNFETLRACRAICRA; left off: TRX, end not stated, cleaved)	0.01 to 0.1	–	–	partially blocked the capsaicin-induced response	neither agonistic nor antagonistic activity	no significant influence	70	significantly attenuated the first phase	significantly inhibited the second phase	–	–	did not cause hyperthermia; also recorded: significantly decreased core body temperature in both tested doses; also recorded: moderate decrease in core body temperature	significantly prolonged paw withdrawal latency	39	−0.8	−2.1
